For test [1], the target named is T1, soybean lipoxygenase isoenzyme-1 (SLOX-1) (Glycine max, UniProt P08170).
T1 construct: purchased Merck and Sigma-Aldrich
T1 sequence (P08170 1-839): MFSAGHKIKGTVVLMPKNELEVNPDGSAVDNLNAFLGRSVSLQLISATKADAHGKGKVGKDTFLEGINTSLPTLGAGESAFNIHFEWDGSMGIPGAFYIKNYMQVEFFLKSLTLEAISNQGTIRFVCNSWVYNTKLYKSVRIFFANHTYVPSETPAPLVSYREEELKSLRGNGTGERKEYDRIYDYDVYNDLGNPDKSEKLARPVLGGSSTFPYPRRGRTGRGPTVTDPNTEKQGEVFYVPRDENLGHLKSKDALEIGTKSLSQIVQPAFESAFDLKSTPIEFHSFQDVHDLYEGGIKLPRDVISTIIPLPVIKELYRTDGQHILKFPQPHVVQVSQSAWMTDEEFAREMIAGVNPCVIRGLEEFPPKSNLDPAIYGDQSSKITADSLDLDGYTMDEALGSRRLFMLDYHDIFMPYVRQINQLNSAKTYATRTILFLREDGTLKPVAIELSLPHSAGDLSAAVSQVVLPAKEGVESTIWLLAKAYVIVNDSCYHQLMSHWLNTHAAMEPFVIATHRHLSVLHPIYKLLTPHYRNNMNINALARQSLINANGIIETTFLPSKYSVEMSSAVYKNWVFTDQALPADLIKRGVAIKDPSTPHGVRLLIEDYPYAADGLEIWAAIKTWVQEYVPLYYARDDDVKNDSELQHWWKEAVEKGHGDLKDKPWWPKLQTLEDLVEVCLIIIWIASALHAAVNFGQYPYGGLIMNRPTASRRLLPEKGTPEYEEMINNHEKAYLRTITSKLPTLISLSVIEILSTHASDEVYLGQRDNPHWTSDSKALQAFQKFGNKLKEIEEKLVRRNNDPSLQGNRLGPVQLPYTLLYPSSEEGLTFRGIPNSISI
As to the kind of experiment: In vitro inhibition of soybean lipoxygenase. The conditions noted are these: pH 9.0, read-out: LOX Inh. IC50. Type of test: biochemical. As for the experimental part:
In vitro anti-LOX activities were evaluated using soybean lipoxygenase isoenzyme-1 (SLOX-1), a commonly used model for mammalian LOXs.
An in vitro study was conducted following a previously reported method. The tested compounds were dissolved in DMSO (100 µM) and incubated at room temperature with 0.1 mL of sodium linoleate as the substrate and 0.2 mL of soybean lipoxygenase solution in Tris-HCl buffer (pH 9.0).

Test [2] in a line: In vitro inhibition of linoleic acid lipid peroxidation (AAPH). The note with it: 100 μM; anti-lipid peroxidation. In a few lines: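 Thermal decomposition of AAPH generated alkylperoxy radicals that oxidized sodium linoleate in aqueous dispersion at 37 °C. Formation of conjugated diene hydroperoxides was followed by absorbance at 234 nm, with Trolox as reference.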
The subject of test [3] is multiple cancer cell lines. As to the kind of experiment: MTT viability assay, summary over several lines. It is filed as cell-based. As for the experimental part:
(§1) HeLa, MCF-7, U251, U87, MDA-MB-435, and MDA-MB-231 cancer cell lines were maintained in incubators at 37 °C with 5% CO2 in DMEM medium supplemented with 10% (v/v) fetal bovine serum (FBS) and antibiotics/antimycotics. All cell lines used in this study originate from the Laboratory of Biochemistry, Department of Chemistry, Aristotle University of Thessaloniki. They are low-passage, mycoplasma-free cancer cell lines that have been extensively used over the past 25 years in numerous studies across various fields of cancer research, including drug cytotoxicity testing.
(§2) All cell lines tested were seeded in 96-well plates at a concentration of 6 × 10^3 cells per well, except HeLa, which were seeded at 3 × 10^3 cells per well. The day after, cells were exposed to increasing concentrations of the compounds for 48 h. Cell viability was determined using the 3-(4,5-dimethylthiazol-2-yl)-2,5-diphenyltetrazolium bromide (MTT) assay, a colorimetric assessment of cellular metabolic activity as described previously. Absorbance values from treated samples were normalized to those of untreated controls, which were assigned to a 100% viability value.

For test [4], the system named is U87 cells. As to the kind of experiment: MTT viability assay. Type of test: cell-based. The conditions noted are these: Homo sapiens, U-87 MG, 48 h. As for the experimental part: as §1, §2
On the technique in general: Formazan colour is commonly taken as a measure of viable cells.

Test [5] has as its system MDA-MB-231 cells. As to the kind of experiment: MTT viability assay. Type of test: cell-based. The note with it: Homo sapiens, 48 h. As for the experimental part:
as §1, §2

Test [6] concerns U251 cells. The test can be described thus: MTT viability assay. Type of test: cell-based. The note with it: Homo sapiens, U-251, 48 h. As for the experimental part: as §1, §2
For test [7], the system named is MDA-MB-435 cells. The test can be described thus: MTT viability assay. It is filed as cell-based. The conditions noted are these: Homo sapiens, 48 h. As for the experimental part:
as §1, §2

Like-named read-outs stand apart in the source and are kept apart here.

On to `C/C(=N\O)c1ccc(NC(=O)COC(=O)/C(=C/c2cccs2)c2ccccc2)cc1` [Compound 6i, 2-((4-((E)-1-(Hydroxyimino)ethyl)phenyl)amino)-2-oxoethyl (E)-2-phenyl-3-(thiophen-2-yl)acrylate], for which, in test [1], the IC50 was 60 µM. Further, the “AAPH Inh. at 100 μΜ” value in test [2] amounted to 28%. The EC50 is 40.9 to 45.4 µM in test [3] (U251, U87, and MDA-MB-231, read-out: EC50 values in the remaining cell lines); 36 to 45 µM in test [3] (read-out: EC50 values across multiple cancer cell lines); 45.4 µM in test [4]; 42.8 µM in test [5]; 40.9 µM in test [6]; 52.9 µM in test [7].

Regarding `C/C(=N\O)c1ccc(NC(=O)COC(=O)/C=C/c2cccs2)cc1` [Compound 6c, 2-((4-((E)-1-(Hydroxyimino)ethyl)phenyl)amino)-2-oxoethyl (E)-3-(thiophen-2-yl)acrylate], the IC50 in test [1] is 10 µM. The “AAPH Inh. at 100 μΜ” value in test [2] was 4%.

On to `O=C(/C=C/c1cc2ccccc2s1)OCc1c(-c2ccccc2)no[n+]1[O-]` [Compound 9e, (E)-3-(((3-(Benzo[b]thiophen-2-yl)acryloyl)oxy)methyl)-4-phenyl-1,2,5-oxadiazole 2-oxide], for which the IC50 in test [1] worked out at 65 µM. In addition, the “AAPH Inh. at 100 μΜ” value in test [2] was 67%.

What is called IC50 is the concentration needed to halve the response being measured. For orientation: EC50 means the concentration at which the effect is half-maximal.
